Values quoted from earlier work in patent US9156886B2, “Cyclosporin analogues for preventing or treating hepatitis C infection” (priority 2009, dated 2015).

Legend:
hepatitis C virus = details: published results, Antiviral Research 65(3):A41 (2005)
cyclophilin A = cyclophilin A (Homo sapiens, UniProt P62937)
Sequence of cyclophilin A (P62937 whole entry, species assumed): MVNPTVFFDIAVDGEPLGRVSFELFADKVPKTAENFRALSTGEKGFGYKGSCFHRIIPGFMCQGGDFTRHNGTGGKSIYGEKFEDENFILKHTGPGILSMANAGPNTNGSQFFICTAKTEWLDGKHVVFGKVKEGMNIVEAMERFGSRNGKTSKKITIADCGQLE

C/C=C/C[C@@H](C)[C@@H](O)[C@H]1C(=O)N[C@@H](CC)C(=O)N(C)[C@H](C)C(=O)N(CC)[C@@H](C(C)C)C(=O)N[C@@H](C(C)C)C(=O)N(C)[C@@H](CC(C)C)C(=O)N[C@@H](C)C(=O)N[C@H](C)C(=O)N(C)[C@@H](CC(C)C)C(=O)N(C)[C@@H](CC(C)C)C(=O)N(C)[C@@H](C(C)C)C(=O)N1C [DEBIO-025]
inhibition of hepatitis C virus replication (hepatitis C virus): potent and selective inhibition
binding affinity for cyclophilin A (cyclophilin A): potent binding affinity
